Molecules are shown by their SMILES. Where a name gives a salt, the structure may show the parent alone.

The compound `CN(CCc1ccccc1)CCc1ccc(Nc2ncc3c(n2)-c2ccccc2[C@H](c2cccc(Br)c2)C3)cc1` (as salt: HCl) [Example 81, (S)-6-(3-bromophenyl)-N-(4-(2-(methyl(phenethyl)amino)ethyl)phenyl)-5,6-dihydrobenzo[h]quinazolin-2-amine] showed a melting point of 146 to 153 °C. To `CN(C)CCCNc1ncc2c(n1)-c1ccccc1C(c1cccc(Br)c1)C2` (centres unmarked) [Example 5, N^1-(6-(3-bromophenyl)-5,6-dihydrobenzo[h]quinazolin-2-yl)-N^3,N^3-dimethylpropane-1,3-diamine] belongs 120 to 122 °C. The same measure for `CCCCN(C)CCc1ccc(Nc2ncc3c(n2)-c2ccccc2[C@H](c2ccc(F)c(F)c2)C3)cc1` (as salt: hydrochloride) [Example 89, (S)—N-(4-(2-(butyl(methyl)amino)ethyl)phenyl)-6-(3,4-difluorophenyl)-5,6-dihydrobenzo[h]quinazolin-2-amine hydrochloride]: 130 to 132 °C. Consider `CC(O)CN(CCc1ccc(Nc2ncc3c(n2)-c2ccccc2C(c2cccc(Br)c2)C3)cc1)Cc1ccccc1` (centres unmarked) [Example 39, 1-(benzyl(4-(6-(3-bromophenyl)-5,6-dihydrobenzo[h]quinazolin-2-ylamino)phenethyl)amino)propan-2-ol], for which the melting point lay within 90 to 92 °C.

As to `CCCCN(C)CCc1ccc(Nc2ncc3c(n2)-c2ccccc2[C@H](c2cccc(Br)c2)C3)cc1` (as salt: hydrochloride) [Example 80, (S)-6-(3-bromophenyl)-N-(4-(2-(butyl(methyl)amino)ethyl)phenyl)-5,6-dihydrobenzo[h]quinazolin-2-amine hydrochloride], the melting point fell in the range of 146 to 153 °C. To `CN(CCc1ccccc1)CCc1ccc(Nc2ncc3c(n2)-c2ccccc2[C@H](c2ccc(Cl)c(Cl)c2)C3)cc1` (as salt: hydrochloride) [Example 104, (S)-6-(3,4-dichlorophenyl)-N-(4-(2-(methyl(phenethyl)amino)ethyl)phenyl)-5,6-dihydrobenzo[h]quinazolin-2-amine hydrochloride salt] belongs 170 to 175 °C; to `CCN(CCc1ccc(Nc2ncc3c(n2)-c2ccccc2C(c2cccc(Br)c2)C3)cc1)Cc1ccncc1` (centres unmarked) [Example 41, 6-(3-bromophenyl)-N-(4-(2-(ethyl(pyridin-4-ylmethyl)amino)ethyl)phenyl)-5,6-dihydrobenzo[h]quinazolin-2-amine], 88 to 90 °C; to `N#Cc1c(N)ncc2c1-c1ccccc1C(c1ccc(Cl)cc1Cl)C2` (centres unmarked) [Example 151, 2-amino-6-(2,4-dichlorophenyl)-5,6-dihydrobenzo[f]isoquinoline-1-carbonitrile], 282 to 284 °C.

As to `CN(C)CCCNc1ncc2c(n1)-c1ccccc1[C@H](c1ccc(Cl)c(Cl)c1)C2` [Example 13, (S)—N^1-(6-(3,4-dichlorophenyl)-5,6-dihydrobenzo[h]quinazolin-2-yl)-N^3,N^3-dimethylpropane-1,3-diamine], the melting point is 59 to 62 °C.

In the case of `CN(C)CCNCCc1ccc(Nc2ncc3c(n2)-c2ccccc2C(c2cccc(Br)c2)C3)cc1` (centres unmarked) [Example 44, N^1-(4-(6-(3-bromophenyl)-5,6-dihydrobenzo[h]quinazolin-2-ylamino)phenethyl)-N^2,N^2-dimethylethane-1,2-diamine], the melting point lay within 75 to 77 °C. To `Brc1cccc(C2Cc3cnc(Nc4ccc(CCN5CCN(c6ccccc6)CC5)cc4)nc3-c3ccccc32)c1` (centres unmarked) [Example 43, 6-(3-bromophenyl)-N-(4-(2-(4-phenylpiperazin-1-yl)ethyl)phenyl)-5,6-dihydrobenzo[h]quinazolin-2-amine] belongs 113 to 115 °C.

In the case of `CCCCN(C)CCc1ccc(Nc2ncc3c(n2)-c2ccccc2[C@H](c2ccc(Br)cc2)C3)cc1` (as salt: hydrochloride) [Example 98, (S)-6-(4-bromophenyl)-N-(4-(2-(butyl(methyl)amino)ethyl)phenyl)-5,6-dihydrobenzo[h]quinazolin-2-amine hydrochloride salt], the melting point lay in the range of 170 to 175 °C. To `Clc1ccc([C@@H]2Cc3cnc(Nc4ccc(CCN5CCCCC5)cc4)nc3-c3ccccc32)cc1` (as salt: hydrochloride) belongs 261 to 263 °C; to `Clc1ccc(C2Cc3cnc(Nc4ccc(CCN5CCCCC5)cc4)nc3-c3ccccc32)c(Cl)c1` (centres unmarked) (as salt: hydrochloride) [Example 76, 6-(2,4-dichlorophenyl)-N-(4-(2-(piperidin-1-yl)ethyl)phenyl)-5,6-dihydrobenzo[h]quinazolin-2-amine hydrochloride], 225 to 230 °C. The same measure for `CN(CCc1ccccc1)CCc1ccc(Nc2ncc3c(n2)-c2ccccc2C(c2cccc(Br)c2)C3)cc1` (centres unmarked) [Example 37, 6-(3-bromophenyl)-N-(4-(2-(methyl(phenethyl)amino)ethyl)phenyl)-5,6-dihydrobenzo[h]quinazolin-2-amine]: 80 to 82 °C; for `COCCN1CCN(CCc2ccc(Nc3ncc4c(n3)-c3ccccc3C(c3ccccc3)C4)cc2)CC1` (centres unmarked) [Example 65, N-(4-(2-(4-(2-methoxyethyl)piperazin-1-yl)ethyl)phenyl)-6-phenyl-5,6-dihydrobenzo[h]quinazolin-2-amine]: 52 to 54 °C. The same measure for `Brc1ccc([C@H]2Cc3cnc(Nc4ccc(CCN5CCCCC5)cc4)nc3-c3ccccc32)cc1` (as salt: hydrochloride) [Example 108, (R)-6-(4-bromophenyl)-N-(4-(2-(piperidin-1-yl)ethyl)phenyl)-5,6-dihydrobenzo[h]quinazolin-2-amine hydrochloride salt]: 170 to 175 °C; for `COCCN1CCN(CCc2ccc(Nc3ncc4c(n3)-c3ccccc3C(c3ccccc3C(F)(F)F)C4)cc2)CC1` (centres unmarked) [Example 69, N-(4-(2-(4-(2-methoxyethyl)piperazin-1-yl)ethyl)phenyl)-6-(2-(trifluoromethyl)phenyl)-5,6-dihydrobenzo[h]quinazolin-2-amine]: 139 to 140 °C; for `Clc1ccc(C2Cc3cnc(Nc4ccc(CCN5CCCCC5)cc4)nc3-c3ccccc32)cc1Cl` (centres unmarked): 181 to 183 °C. Turning to `CCCCN(C)CCc1cc(Nc2ncc3c(n2)-c2ccccc2[C@H](c2ccccc2F)C3)ccc1F` (as salt: hydrochloride) [Example 172, (R)—N-(3-(2-(butyl(methyl)amino)ethyl)-4-fluorophenyl)-6-(2-fluorophenyl)-5,6-dihydrobenzo[h]quinazolin-2-amine hydrochloride salt], the melting point lay within 125 to 130 °C. Compound `CC(C)(C)OC(=O)N1CCC[C@@H](Nc2ncc3c(n2)-c2ccccc2[C@@H](c2ccc(Cl)c(Cl)c2)C3)C1` had a melting point of 85 to 87 °C. To `COCCN1CCN(Cc2cccc(Nc3ncc4c(n3)-c3ccccc3[C@H](c3ccccc3F)C4)c2)CC1` (as salt: hydrochloride) [Example 179, (R)-6-(2-fluorophenyl)-N-(3-((4-(2-methoxyethyl)piperazin-1-yl)methyl)phenyl)-5,6-dihydrobenzo[h]quinazolin-2-amine hydrochloride] belongs 173 to 178 °C; to `CCCCN(C)CCc1ccc(Nc2ncc3c(n2)-c2ccccc2C(c2ccc(F)c(F)c2)C3)cc1` (centres unmarked) (as salt: hydrochloride) [Example 58, N-(4-(2-(butyl(methyl)amino)ethyl)phenyl)-6-(3,4-difluorophenyl)-5,6-dihydrobenzo[h]quinazolin-2-amine], 85 to 91 °C; to `CN(C)CCc1ccc(Nc2ncc3c(n2)-c2ccccc2[C@H](c2ccc(F)c(F)c2)C3)cc1` (as salt: hydrochloride) [Example 87, (S)-6-(3,4-difluorophenyl)-N-(4-(2-(dimethylamino)ethyl)phenyl)-5,6-dihydrobenzo[h]quinazolin-2-amine hydrochloride], 165 to 167 °C. To `OCCc1ccc(Nc2ncc3c(n2)-c2ccccc2C(c2ccc(F)c(F)c2)C3)cc1` (centres unmarked) [Example 23, 2-(4-(6-(3,4-difluorophenyl)-5,6-dihydrobenzo[h]quinazolin-2-ylamino)phenyl)ethanol] belongs 170 to 172 °C.

With `CCCCN(C)CCc1ccc(Nc2ncc3c(n2)-c2ccccc2C(c2ccccc2C(F)(F)F)C3)cc1` (centres unmarked) [Example 68, N-(4-(2-(butyl(methyl)amino)ethyl)phenyl)-6-(2-(trifluoromethyl)phenyl)-5,6-dihydrobenzo[h]quinazolin-2-amine], the melting point fell in the range of 80 to 82 °C. The same measure for `COCCN1CCN(CCc2ccc(Nc3ncc4c(n3)-c3ccccc3C(c3ccc(Cl)cc3Cl)C4)cc2)CC1` (centres unmarked) (as salt: hydrochloride): 208 to 212 °C; for `Nc1ncc2c(n1)-c1ccccc1[C@@H](c1ccc(Cl)c(Cl)c1)C2`: 159 to 160 °C. To `CC(C)c1ccc2c(c1)C(c1ccc(Cl)c(Cl)c1)Cc1cnc(N)nc1-2` (centres unmarked) [Example 20, 6-(3,4-dichlorophenyl)-8-isopropyl-5,6-dihydrobenzo[h]quinazolin-2-amine] belongs 174 to 176 °C; to `CN(CCc1ccc(Nc2ncc3c(n2)-c2ccccc2[C@H](c2ccc(F)cc2)C3)cc1)C1CCCCC1` [Example 102, (S)—N-(4-(2-(cyclohexyl(methyl)amino)ethyl)phenyl)-6-(4-fluorophenyl)-5,6-dihydrobenzo[h]quinazolin-2-amine], 160 to 162 °C. The same measure for `CN(CCc1ccc(Nc2ncc3c(n2)-c2ccccc2C(c2cccc(Br)c2)C3)cc1)CCc1ccccn1` (centres unmarked) [Example 36, 6-(3-bromophenyl)-N-(4-(2-(methyl(2-(pyridin-2-yl)ethyl)amino)ethyl)phenyl)-5,6-dihydrobenzo[h]quinazolin-2-amine]: 75 to 77 °C; for `CCN(CCc1ccc(Nc2ncc3c(n2)-c2ccccc2C(c2cccc(Br)c2)C3)cc1)C(C)C` (centres unmarked) [Example 40, 6-(3-bromophenyl)-N-(4-(2-(ethyl(isopropyl)amino)ethyl)phenyl)-5,6-dihydrobenzo[h]quinazolin-2-amine]: 67 to 69 °C.

The values are drawn from patent US8357694B2, “Substituted 5,6-dihydro-6-phenylbenzo[F]isoquinolin-2-amine compounds” (ArQule, Inc., priority 2008, dated 2013).
